Reference: patent US12410152B2, “Oxazole and thioazole-type cullin ring ubiquitin ligase compounds and uses thereof” (Proxygen GmbH, priority 2019, dated 2025)

What was measured:
KBM7-Cas9 cells = test: CRISPR/Cas9 resistance screens (genome-wide Brunello and CRL-focused sgRNA libraries); type: cell-based, human; details: two weeks continuous drug treatment, start 4xEC50
Method: 293T cells seeded on 15 cm culture plates 16h before were transfected with 5 μg Brunello pooled library (Addgene #73178; 2-vector system), 2.5 μg pMD2.G (Addgene #12259), and 3.75 μg psPAX2 (Addgene #12260) using PolyFect (Qiagen) according to the manufacturer's protocol. Viral supernatant was harvested 72h after transfection and concentrated using Lenti—X-concentrator (Takara), according to the manufacturer's protocol. Concentrated viral supernatant was stored in aliquots at −80° C. and titrated to achieve a MOI of 0.2-0.3.
250 million KBM7-Cas9 cells were transduced at MOI 0.23, yielding a calculated library representation of 668 cells/sgRNA (library representation=50 million cells). For transduction, 20 μL of concentrated viral supernatant was added to 5 million cells in 1.5 mL IMDM and 8 μg/mL polybrene in 6-well plates. Plates were centrifuged at 2000 rpm for 1 h at 30° C. in a benchtop centrifuge, 0.5 mL IMDM were added and then incubated at 37° C. overnight. The next day, transduced cells were pooled and diluted. Pools were selected with 1 μg/mL puromycin for 5 days. Three independent resistance screens were performed with the library using drugs at starting concentrations of 4×EC50. Selective drug treatment was performed on 50 million cells/drug at a seeding density of 500,000 cells/mL. Every 5 days, cells were pooled, counted and re-seeded to 50 million cells in 100 mL, applying fresh drug. […]
De-multiplexed raw reads were processed to count sgRNA spacer abundance using a custom script. The first 20 bp of the trimmed reads were collected and aligned against the Brunello spacer index using Bowtie2. Spacers were counted using cut-f 3|sort|uniq -c on the aligned SAM files. […] Log 2 fold changes of drug treatment vs DMSO were calculated from normalized counts, omitting spacers with no reads in the DMSO condition. The enrichment rank of each spacer sequence was expressed as a fraction of the total number of spacers, so that the most enriched spacer is assigned a perturbation strength of 1, in accordance with the STARS algorithm. […]

[1] = system: KBM7 WT and UBE2Mmut cells; test: Primary phenotypic screen, differential viability KBM7 WT vs UBE2M mutant; type: cell-based, human; details: 10 μM and 500 nM, 3 days
Method: Following this observation, it was rationalized that novel small molecule degraders can be identified in an unbiased manner, simply by searching for compounds that lose activity in the absence of UBE2M. 2000 small molecules, mostly of unknown function/target, were tested for their antiproliferative effects in human leukemia cells (KBM7). These cells were either transduced with a control sgRNA (KBM7WT), or with an sgRNA targeting UBE2M, leading to a hypomorph (deletion of six amino acids) with a functional impairment (UBE2Mmut).
KBM7^WT and UBE2M^mut cells were treated with a compound library (2000 cytotoxic diverse small-molecules, mostly of unknown function/target). Briefly, the screening was divided in three parts 1) primary screening, 2) follow up and 3) validation. During the primary screening, cells were treated with 10 μM and 500 nM of every compound. […] After 3 days of treatment, cell viability was measured (CellTiter Glo, Promega). The screen was perform in 384-well plates (Corning 3712) and the reagent/compound dispensing system used was: Echo 520 Liquid Handler, Multidrop™ Combi Reagent Dispenser. Control compounds were included in several wells, in all the plates. Method for validation of IC021313.2, IC020822.1, IC020772.1, T6938051 as described above in (i).

SMILES	gene enrichment in drug-tolerant populations (genome-wide CRISPR screen) (KBM7-Cas9 cells)	hit in differential viability screen [1]
O=C(CSc1nnc2c(n1)[nH]c1ccccc12)Nc1ccc(Cl)cn1 [IC020772.1]	striking enrichment in only four genes	stood out in terms of fold-change significance
Cc1ccc(C(=O)N2CSCC2C(=O)N=c2[nH]cc(C)s2)o1 (stereo not drawn) [Compound T6938051]	striking enrichment in only four genes	stood out in terms of fold-change significance
O=C(CSc1nc2ccccc2[nH]1)Nc1ccc(Cl)cn1 [IC021313.2]	striking enrichment in only four genes	stood out in terms of fold-change significance
